A word on the melting point: it is the temperature of the solid-liquid transition. What is called Ki is a measure of affinity in units of concentration, obtained from inhibition or displacement.

In series [1] the target is T1, prostanoide receptor subtype (mouse EP3α) (Mus musculus, UniProt P30557).
T1 construct: expressed in transfected cells; host or cells: CHO cells (membrane fraction)
T1 sequence (P30557 1-365): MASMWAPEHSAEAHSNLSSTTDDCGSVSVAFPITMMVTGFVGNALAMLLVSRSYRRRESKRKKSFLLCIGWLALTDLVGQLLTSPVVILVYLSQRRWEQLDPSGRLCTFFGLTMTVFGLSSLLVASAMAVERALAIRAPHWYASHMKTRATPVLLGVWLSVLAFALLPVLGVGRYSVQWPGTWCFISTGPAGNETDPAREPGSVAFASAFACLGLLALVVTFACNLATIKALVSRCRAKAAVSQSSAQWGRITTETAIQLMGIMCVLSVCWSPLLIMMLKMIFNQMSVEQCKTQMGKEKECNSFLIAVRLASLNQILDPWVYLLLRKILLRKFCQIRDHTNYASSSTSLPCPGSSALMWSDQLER
The experiment in a line: Binding assay using expression cell of prostanoide receptor subtype ([3H]-PGE2 competition, CHO cell membrane fraction). As to conditions: [3H]-PGE2 2.5 nM; membrane fraction of CHO cells expressing mouse EP3α; Ki = IC50/(1+([C]/Kd)); read-out: dissociation constant Ki. How it is done:
For example, in standard laboratory test, the effects of the compounds of the present invention were confirmed by inhibitory effect on binding PGE2 using expression cell of receptor.
(I) Binding Assay using Expression Cell of Prostanoide Receptor Subtype
The preparation of membrane fraction was carried out according to the method of Sugimoto et al (J. Biol. Chem. 267, 6463-6466 (1992)), using expression CHO cell of prostanoide receptor subtype (mouse EP3α).
The standard assay mixture contained membrane fraction (0.5 mg/ml), [^3H]-PGE2 in a final volume of […] was incubated for 1 hour at room temperature. The reaction was terminated by addition of 3 ml of ice-cold buffer. The mixture was rapidly filtered through a glass filter (GF/B). The radioactivity associated with the filter was measured by liquid scintillation counting.
Kd and Bmax values were determined from Scatchard plots (Ann. N.Y. Acad. Sci., 51, 660 (1949)). Non-specific binding was calculated as the bond in the presence of an excess ([…]) of unlabeled PGE2. In the experiment for competition of specific [^3H]-PGE2 binding by the compounds of the present invention, [^3H]-PGE2 was added at a concentration of 2.5 nM and the compounds of the present invention were at a concentration of 1 mM. Buffer: 10 mM potassium phosphate (pH6.0), 1 mM EDTA, 10 mM MgCl2, 0.1 M NaCl.
The dissociation constant Ki (μM) of each compound was calculated by the following equation.

Molecule `O=C(O)COc1cccc2c(CS(=O)(=O)CC(O)COc3ccccc3)cccc12` (stereo not shown) [3(7), 2-[5-(2RS-Hydroxy-3-phenoxypropylsulfonyl)methyl-1-naphthyloxy]acetic Acid] yielded a melting point of 186 to 190 °C.

Molecule `O=C(O)COc1cccc2c(CCSC[C@H](O)COc3ccccc3)cccc12` [3(3), 2-{5-[2-(2R-Hydroxy-3-phenoxypropylthio)ethyl]-1-naphthyloxy}acetic Acid] yielded a melting point of 114 to 115.5 °C.

For `O=C(O)COc1cccc2c(CCCSCC(O)c3ccccc3)cccc12` (stereo not shown) [3(8), 2-{5-[3-(2RS-Hydroxy-2-phenylethylthio)propyl]-1-naphthyloxy}acetic Acid], the Ki in series [1] worked out at 2000 nM.

In turn, `O=C(O)COc1cccc2c(CSCC(O)COc3ccccc3)cccc12` (stereo not shown) [3(5), 2-[5-(2RS-Hydroxy-3-phenoxypropylthio)methyl-1-naphthyloxy]acetic Acid] had a melting point of 105 to 107 °C.

Turning to `O=C(O)COc1cccc2c(CCCS(=O)(=O)/C=C/c3ccccc3)cccc12` [5(1), 2-[5-(3-Styrylsulfonylpropyl)-1-naphthyloxy]acetic Acid], the Ki in series [1] was found to be 8.6 nM.

`O=C(O)COc1cccc2c(CCSCC(O)COc3ccccc3)cccc12` (stereo not drawn) [3(4), 2-{5-[2-(2S-Hydroxy-3-phenoxypropylthio)ethyl]-1-naphthyloxy}acetic Acid] registered a melting point of 114 to 115.5 °C.

Regarding `O=C(O)COc1cccc2c(CCSCC(O)COc3ccccc3)cccc12` (stereo not shown) [compound 3], the Ki in series [1] turned out to be 48 nM.

Consider `O=C(O)COc1cccc2c(CCC[S+]([O-])/C=C/c3ccccc3)cccc12` (stereo not shown) [compound 5], for which the Ki in series [1] turned out to be 80 nM.

In the case of `O=C(O)COc1cccc2c(C[S+]([O-])CC(O)COc3ccccc3)cccc12` (stereo not shown) [3(6), 2-[5-(2RS-Hydroxy-3-phenoxypropylsulfinyl)methyl-1-naphthyloxy]acetic Acid], the Ki in series [1] turned out to be 150 nM.

For the molecule `O=C(O)COc1cccc2c(CCS(=O)(=O)CC(O)COc3ccccc3)cccc12` (stereo not shown) [3(2), 2-{5-[2-(2RS-Hydroxy-3-phenoxypropylsulfonyl)ethyl]-1-naphthyloxy}acetic Acid], the Ki in series [1] came out at 9.9 nM.

The values above are taken from patent publication US6335366B2, “Naphthyloxy acetic acid derivatives and a pharmaceutical composition comprising them as an active ingredient” (Ono Pharmaceutical Co., Ltd., priority 1996, dated 2002).
